The source of these data is patent US8809583B2, “Methods for producing isomers of muconic acid and muconate salts” (Amyris, Inc., priority 2010, dated 2014).

A short description of the data set: Isomerization of cis,cis-muconate to cis,trans-muconate in crude fermentation broth, monitored by 1H NMR and HPLC. Format: physicochemical. The settings on record: for time until isomerization cis,cis to cis,trans is essentially complete: pH 4, 60° C. The protocol: cis,cis-muconate produced from a renewable carbon source through biocatalytic conversion (e.g., according to the method of Examples 7 and 7A) was provided, and the fermentation culture including the cis,cis-muconate was warmed to 60° C. The warmed fermentation culture was adjusted to pH 4 by adding 2 N sulfuric acid over 0.5 h. The acidified culture was allowed to react for 3.5 h.
The reaction was monitored by ^1H NMR and HPLC equipped with the Prevail Organic Acid Column (150 mm×4.6 mm), to determine the endpoint of the reaction. […] In general, such isomerization reactions can be monitored to determine appropriate reaction parameters (e.g., time, temperature, pH, and the like).

As for `O=C(O)/C=C\C=C/C(=O)O` [cis,cis-muconate, cis,cis-muconic acid], the “time until isomerization cis,cis to cis,trans is essentially complete” value reads like this: (HPLC traces and time course) “about 1.25 hours”; (crude fermentation broth, 1H NMR) “about 1.25 hours”. For the same compound, the “isomerization from cis,cis to cis,trans-muconic acid” value (pH 7, HPLC traces and time course) is “essentially no isomerization”. Further, the “isomerization from cis,cis to cis,trans muconic acid” value (pH 7, crude fermentation broth, 0 to 3.25 hours, 1H NMR) is reported as “essentially no isomerization”.
